Test results from US20260274836A1, “NOVEL HEPATOSELECTIVE POLYADENYLATING POLYMERASES INHIBITORS AND THEIR METHOD OF USE” (Baruch S. Blumberg Institute, priority 2022, published 2026).
Where “and” joins values, the source holds several entries; their conditions need not be identical. Equal entries are not always repeated.

Key:
in vitro = format: cell-based; conditions: human
Description: Assays for the anti-HAV activity of the hepatoselective DHQ compounds were carried out in Huh-7 human hepatoma cells using the 18f-NLuc reporter virus, which expresses nanoluciferase (NLuc) from sequence inserted into the polyprotein coding region of the HM175/18f HAV genome between the VP1pX and 2B coding sequences (Yamane et al., 2019). The method was modified minimally from that described by Misumi et al. for iminosugar compounds (Misumi et al., 2021). Cells (approximately […]) were plated in wells of a 96-well plate with Dulbecco's modified Eagle medium (DMEM) and 10% fetal bovine serum. The cells were inoculated 24 hrs later with 18f-NLuc virus (approximately 10^6-10^7 genome equivalents) in medium containing increasing concentrations of the compounds of interest. […] Luminescence was measured using a Biotek Synergy II multi-mode plate reader (BioTek Instruments). […] Cell toxicity of the compounds was assessed using the WST-1 Cell Proliferation Reagent (Sigma-Aldrich) at the end of the treatment period in parallel cultures of uninfected cells, with WST-1 reagent added to cultures for 1 hr prior to harvest and O.D. reading.
Additional exemplary compounds of the present invention are evaluated for anti-HAV activity in accordance with certain assays described hereinabove. […] Luminescence was measured using a Biotek Synergy II multi-mode plate reader (BioTek Instruments). […]

[1] = Pharmacokinetics after intravenous (IV) administration, plasma; format: in vivo, CD1 mice; set-up: AUClast/D: unit not given here; conditions: 3 mg/kg IV; for Concentration (ng/mL): plasma
Description: (§1) Protocol for pharmacokinetic and tissue distribution studies. The pharmacokinetics of the compounds was studied in CD1 mice after intravenous (IV) and oral gavage (PO) administration. Mouse PK studies was conducted at 3 mg/kg (IV) and 8 mg/kg (PO). Plasma samples obtained from dosed animals, at ten time points, including 5, 15 and 30 minutes and 1, 1.5, 2, 4, 6, 8 and 24 hr post-dose for processing to plasma, were prepared for analysis by means of a single step protein precipitation technique, by adding 200 μL of acetonitrile containing an IS mixture (labetalol, imipramine and diclofenac) to 50 μL aliquots of individual subject samples. Samples were mixed by vortex for homogeneity and then subjected to centrifugation at 4000 rpm for 10 min. The supernatant (200 μL) was collected and injected into the LC-MS/MS for analysis. Pharmacokinetic parameters will be calculated using established non-compartmental methods. The liver distribution of the compounds was studied in the PO group and liver tissues were collected at each time point after PO administration. Accurately weighed whole liver tissues were collected in a 50 mL tube, and 3 volumes per weight of water will be added. Tissue samples were homogenized and 50 μL of the homogenates will be processed along with plasma samples as described above.

[2] = Pharmacokinetics after oral gavage (PO) administration, plasma; format: in vivo, CD1 mice; set-up: AUClast/D: unit not given here; conditions: 8 mg/kg oral; for Concentration (ng/mL), plasma: individual animals
Description: as §1

## COc1cc2c(cc1OCCCCCCC(=O)O)C[C@@H](C(C)C)n1cc(C(=O)O)c(=O)cc1-2 [Example 6, (S)-9-((6-carboxyhexyl)oxy)-6-isopropyl-10-methoxy-2-oxo-6,7-dihydro-2H-pyrido[2,1-a]isoquinoline-3-carboxylic acid]
In vitro
  CC50 at 48 h: > 10 µM
[1]; individual mice
  AUC—% Extrap —obs: 1.59% and 1.03% and 0.662%
  Cl_obs: 187 mL/min/kg and 166 mL/min/kg and 242 mL/min/kg
[1]; mean
  AUClast/D: 85.1
  AUC—% Extrap —obs: 1.09%
  C0: 2568 ng/mL
  Cl_obs: 198 mL/min/kg
[1]; 4 h, individual mice
  Concentration (ng/mL): BLOQ
[1]; 8 h, individual mice
  Concentration (ng/mL): BLOQ
[1]; 24 h, individual mice
  Concentration (ng/mL): BLOQ
[2]; mean
  AUClast/D: 4.33
  F: 5.09%
[2]; 8 h
  Concentration (ng/mL), plasma: BLOQ
[2]; 24 h
  Concentration (ng/mL), plasma: BLOQ
